Measurements reported in patent publication US20230013363A1, “COMPOSITION FOR ENHANCING REPROGRAMMING EFFICIENCY FROM SOMATIC CELL TO INDUCED PLURIPOTENT STEM CELL, COMPRISING MTOR ACTIVATOR, AND METHOD FOR ENHANCING REPROGRAMMING EFFICIENCY BY USING SAME” (KOREA UNIVERSITY RESEARCH AND BUSINESS FOUNDATION, priority 2019, published 2023).

Assays:
[1] = test system: human placenta derived cells (HPC); assay: Reprogramming efficiency of OSKM-transduced somatic cells to iPSCs (HPC); assay type: cell-based
Description: (§1) In order to examine whether 4,6-di-4-morpholinyl-N-(4-nitrophenyl)-1,3,5-triazin-2-amine (MHY1485, CAS Number 326914-06-1), which is an mTOR (mammalian target of rapamycin) activator, has an influence on reprogramming efficiency, reprogramming factors (OCT4, SOX2, c-Myc, KLF4; OSKM) were transduced into primary umbilical vein endothelial cells (HUVEC, ATCC #PCS-100-010), primary human dermal fibroblasts (HDF, ATCC # PCS-201-012), and human placenta derived cells (HPC) via the Sendai virus (SeV) system as shown in FIG. 1a.
(§2) Twenty-four hours after transduction, the cells were cultured for one week in a placenta-derived cell conditioned medium (PCCM) or growth medium (GM). MHY1485 was added at a dose of 2 μg/mL once per 24 hours for three weeks. After one week of the culturing in a placenta-derived cell conditioned medium (PCCM) or growth medium (GM), the cells were induced to undergo reprogramming for two weeks in Matrigel-coated culture dishes containing mTeSR medium together with MHY1485 under a general pluripotent stem cell culturing condition.

[2] = test system: primary umbilical vein endothelial cells (HUVEC); assay: Reprogramming efficiency of OSKM-transduced somatic cells to iPSCs (HUVEC); assay type: cell-based, human
Description: as §1, §2

[3] = test system: LC3a/b in HUVEC, HDF, and HPC cells; assay: Immunofluorescence assay of LC3a/b (autophagy) in somatic cells; assay type: cell-based, human; conditions: rapamycin as control
[4] = test system: primary human dermal fibroblasts (HDF); assay: Reprogramming efficiency of OSKM-transduced somatic cells to iPSCs (HDF); assay type: cell-based
Description: as §1, §2

[5] = test system: CXCR2, mTOR, cMYC, LC3a/b, p62 in HUVEC, HDF, and HPC cells; assay: Western blot of protein expression in somatic cells with or without MHY1485; assay type: cell-based, human
Description: as §1, §2
Western blotting identified the expression of CXCR2, mTOR, and cMYC. Autophagic flux activity was identified […].

[6] = test system: HUVEC, HDF, and HPC cells; assay: Reprogramming efficiency, HUVEC, HDF and HPC taken together (total of 9 dishes); assay type: cell-based, human
Description: as §1, §2
HUVEC, HDF, and HPC cells were induced to undergo reprogramming by treatment with MHY1485 or in PCCM in three dishes for each cell line.

[7] = GM + MHY1485 (2 μg/mL once per 24 hours for three weeks)
[8] = treatment with MHY1485 vs no treatment

O=[N+]([O-])c1ccc(Nc2nc(N3CCOCC3)nc(N3CCOCC3)n2)cc1 [MHY1485, 4,6-di-4-morpholinyl-N-(4-nitrophenyl)-1,3,5-triazin-2-amine] was tested, and the “Reprogramming efficiency (%)” value [1, 7] was 0.35%, the “Reprogramming efficiency (%)” value ([1]; hPCCM + MHY1485 (2 μg/mL)) was 0.92% and the “Reprogramming efficiency (%)” value [2, 7] was 0.13%. For the same molecule, the “Reprogramming efficiency (%)” value ([2]; hPCCM + MHY1485 (2 μg/mL)) was 0.39%, the “expression of LC3a/b (inhibition of autophagy)” value [3] was “decreased” and the “Reprogramming efficiency (%)” value [4, 7] was 0.04%. For the same molecule, the “Reprogramming efficiency (%)” value ([4]; hPCCM + MHY1485 (2 μg/mL)) was 0.07%, the “expression level of p62 (indicates inactivation of autophagic flux)” value ([5]; treatment with MHY1485) was “increased” and the “expression of CXCR2” value [5, 8] was “increased”. The “expression of LC3a/b” value [5, 8] was “decreased”, the “expression of cMYC” value [5, 8] was “increased” and the “expression of mTOR” value [5, 8] was “increased”. For the same molecule, the “Reprogramming efficiency (%)” value ([6]; GM + MHY1485, HUVEC, HDF, HPC, three dishes each, total of 9 dishes) was 0.17%, the “effect of increasing reprogramming efficiency, compared to the employment of PCCM medium” value ([6]; MHY1485 treatment vs PCCM medium, FIG. 4 and Table 2) was “significantly higher” and the “reprogramming efficiency compared to untreated cells” value ([6]; all the cells (HUVEC, HDF, HPC), FIGS. 2a to 2c) was “increased”.
